Reference: patent US10457684B2, “[1,2,3]triazolo[4,5-d]pyrimidine derivatives” (Hoffmann-La Roche Inc., priority 2016, dated 2019)

Legend:
[1] = biological target: human CB2 receptor (Homo sapiens (Human), UniProt P34972); assay: Radioligand binding assay, [3H]-CP-55,940, membranes of HEK cells expressing human CNR2; conditions: 2.6 nM [3H]-CP-55,940, HEK cell membranes, 1 h at 30° C.
Experimental: (§1) Radioligand Binding Assay
(§2) The affinity of the compounds of the invention for cannabinoid receptors was determined using recommended amounts of membrane preparations (PerkinElmer) of human embryonic kidney (HEK) cells expressing the human CNR1 or CNR2 receptors in conjunction with 1.5 or 2.6 nM [3H]-CP-55,940 (Perkin Elmer) as radioligand, respectively. Binding was performed in binding buffer (50 mM Tris, 5 mM MgCl2, 2.5 mM EDTA, and 0.5% (wt/vol) fatty acid free BSA, pH 7.4 for CB1 receptor and 50 mM Tris, 5 mM MgCl2, 2.5 mM EGTA, and 0.1% (wt/vol) fatty acid free BSA, pH 7.4 for CB2 receptor) in a total volume of 0.2 mL for 1 h at 30° C. shaking. The reaction was terminated by rapid filtration through microfiltration plates coated with 0.5% polyethylenimine (UniFilter GF/B filter plate; Packard). Bound radioactivity was analyzed for Ki using nonlinear regression analysis (Activity Base, ID Business Solution, Limited), with the Kd values for [^3H]CP55,940 determined from saturation experiments.
The compounds according to formula (I) have an activity in the above assay (Ki) particularly of 0.5 nM to 10 μM, more particularly of 0.5 nM to 3 μM and most particularly of 0.5 nM to 100 nM.

[2] = biological target: human CB1 receptor (Homo sapiens (Human), UniProt P21554); assay: Radioligand binding assay, [3H]-CP-55,940, membranes of HEK cells expressing human CNR1; conditions: 1.5 nM [3H]-CP-55,940, HEK cell membranes, 1 h at 30° C.
Experimental: as §1, §2

Sequence of human CB1 receptor (P21554 whole entry): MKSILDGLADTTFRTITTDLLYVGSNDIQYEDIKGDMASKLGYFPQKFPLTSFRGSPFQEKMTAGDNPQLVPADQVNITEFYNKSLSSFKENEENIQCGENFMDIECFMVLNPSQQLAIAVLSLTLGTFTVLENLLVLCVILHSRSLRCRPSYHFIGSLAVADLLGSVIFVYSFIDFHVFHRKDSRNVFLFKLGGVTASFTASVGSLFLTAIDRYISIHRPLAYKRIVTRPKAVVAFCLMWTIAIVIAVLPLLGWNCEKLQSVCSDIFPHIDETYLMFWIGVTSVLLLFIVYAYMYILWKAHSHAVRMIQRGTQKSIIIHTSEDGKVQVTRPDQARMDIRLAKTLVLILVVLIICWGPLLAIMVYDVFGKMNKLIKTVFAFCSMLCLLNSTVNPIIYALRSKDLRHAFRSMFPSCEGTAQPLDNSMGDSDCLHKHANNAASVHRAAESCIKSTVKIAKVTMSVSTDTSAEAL
Sequence of human CB2 receptor (P34972 whole entry): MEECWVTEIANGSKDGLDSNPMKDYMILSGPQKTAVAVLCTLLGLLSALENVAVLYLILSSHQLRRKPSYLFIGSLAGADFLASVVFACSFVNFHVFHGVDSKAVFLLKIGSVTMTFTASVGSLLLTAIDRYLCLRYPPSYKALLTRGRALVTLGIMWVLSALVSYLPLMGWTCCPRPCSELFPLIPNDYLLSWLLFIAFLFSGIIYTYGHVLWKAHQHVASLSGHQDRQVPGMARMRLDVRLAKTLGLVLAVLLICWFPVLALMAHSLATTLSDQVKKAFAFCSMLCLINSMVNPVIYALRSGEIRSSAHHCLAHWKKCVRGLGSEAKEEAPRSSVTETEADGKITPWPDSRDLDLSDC

Row | SMILES | Ki [1] | Ki [2]
1 | Cc1nonc1Cn1nnc2c(N3CCC4(C3)N=N4)nc(C(C)(C)C)nc21 [Example 1, 5-tert-Butyl-3-[(4-methyl-1,2,5-oxadiazol-3-yl)methyl]-7-(1,2,5-triazaspiro[2.4]hept-1-en-5-yl)-3H-[1,2,3]triazolo[4,5-d]pyrimidine] | 16.1 nM | 2960 nM
2 | FC(F)(F)c1ccccc1Cn1nnc2c(N3CCC4(C3)N=N4)nc(C(F)(F)c3ccccc3)nc21 [Example 2, 5-[Difluoro(phenyl)methyl]-7-(1,2,5-triazaspiro[2.4]hept-1-en-5-yl)-3-{[2-(trifluoromethyl)phenyl]methyl}-3H-[1,2,3]triazolo[4,5-d]pyrimidine] | 0.8 nM | 993 nM
3 | CC(C)(C)c1nc(N2CCC3(C2)N=N3)c2nnn(Cc3ccccc3Cl)c2n1 [Example 3, 5-tert-Butyl-3-[(2-chlorophenyl)methyl]-7-(1,2,5-triazaspiro[2.4]hept-1-en-5-yl)-3H-[1,2,3]triazolo[4,5-d]pyrimidine] | 3.3 nM | 321 nM
4 | CC(C)(C)c1nc(N2CCC(F)(F)C2)c2nnn(Cc3ccccc3C3(C(F)(F)F)N=N3)c2n1 [Example 4, 5-tert-Butyl-7-(3,3-difluoropyrrolidin-1-yl)-3-({2-[3-(trifluoromethyl)-3H-diaziren-3-yl]phenyl}methyl)-3H-[1,2,3]triazolo[4,5-d]pyrimidine] | 4.2 nM | 488 nM
5 | C#Cc1ccccc1Cn1nnc2c(N3CCC4(C3)N=N4)nc(C(C)(C)C)nc21 [Example 5, 5-tert-Butyl-3-[(2-ethynylphenyl)methyl]-7-(1,2,5-triazaspiro[2.4]hept-1-en-5-yl)-3H-[1,2,3]triazolo[4,5-d]pyrimidine] | 5.6 nM | 132 nM
6 | FC(F)(c1ccccc1)c1nc(N2CCC3(C2)N=N3)c2nnn(Cc3ccccc3Cl)c2n1 [Example 6, 3-[(2-Chlorophenyl)methyl]-5-[difluoro(phenyl)methyl]-7-(1,2,5-triazaspiro[2.4]hept-1-en-5-yl)-3H-[1,2,3]triazolo[4,5-d]pyrimidine] | 9.9 nM | 799 nM
7 | Cc1nonc1Cn1nnc2c(N3CCC4(C3)N=N4)nc(C(F)(F)c3ccccc3)nc21 [Example 7, 5-[Difluoro(phenyl)methyl]-3-[(4-methyl-1,2,5-oxadiazol-3-yl)methyl]-7-(1,2,5-triazaspiro[2.4]hept-1-en-5-yl)-3H-[1,2,3]triazolo[4,5-d]pyrimidine] | 45.5 nM | 5410 nM
8 | CC(C)(C)c1nc(N2CCC(F)(F)C2)c2nnn(Cc3ccc(C4(C(F)(F)F)N=N4)cc3Cl)c2n1 [Example 8, 5-tert-Butyl-3-({2-chloro-4-[3-(trifluoromethyl)-3H-diaziren-3-yl]phenyl}methyl)-7-(3,3-difluoropyrrolidin-1-yl)-3H-[1,2,3]triazolo[4,5-d]pyrimidine] | 55.6 nM | > 10000 nM
9 | C#CCCC1(CCNC(=O)c2nonc2Cn2nnc3c(N4CCC(F)(F)C4)nc(C(C)(C)C)nc32)N=N1 [Example 9, 4-{[5-tert-Butyl-7-(3,3-difluoropyrrolidin-1-yl)-3H-[1,2,3]triazolo[4,5-d]pyrimidin-3-yl]methyl}-N-{2-[3-(but-3-yn-1-yl)-3H-diaziren-3-yl]ethyl}-1,2,5-oxadiazole-3-carboxamide] | 1160 nM | > 10000 nM
10 | C#CCCC1(CCNC(=O)c2nonc2Cn2nnc3c(N4CC[C@H](O)C4)nc(C(C)(C)C)nc32)N=N1 [Example 10, 4-({5-tert-Butyl-7-[(3S)-3-hydroxypyrrolidin-1-yl]-3H-[1,2,3]triazolo[4,5-d]pyrimidin-3-yl}methyl)-N-{2-[3-(but-3-yn-1-yl)-3H-diaziren-3-yl]ethyl}-1,2,5-oxadiazole-3-carboxamide] | 200 nM | > 10000 nM
11 | C#Cc1ccccc1Cn1nnc2c(N3CCC4(C3)N=N4)nc(C(F)(F)c3ccccc3)nc21 [Example 11, 5-[Difluoro(phenyl)methyl]-3-[(2-ethynylphenyl)methyl]-7-(1,2,6-triazaspiro[2.4]hept-1-en-6-yl)triazolo[4,5-d]pyrimidine] | 19 nM | 465 nM
12 | C#Cc1cccc(C2(C(F)(F)F)N=N2)c1Cn1nnc2c(N3CCC(F)(F)C3)nc(C(F)(F)c3ccccc3)nc21 [Example 12, 5-[Difluoro(phenyl)methyl]-7-(3,3-difluoropyrrolidin-1-yl)-3-[[2-ethynyl-6-[3-(trifluoromethyl)diazirin-3-yl]phenyl]methyl]triazolo[4,5-d]pyrimidine] | 31 nM | 3390 nM
13 | C#Cc1cccc(C2(C(F)(F)F)N=N2)c1Cn1nnc2c(N3CCC(F)(F)C3)nc(C(C)(C)C)nc21 [Example 13, 5-tert-Butyl-7-(3,3-difluoropyrrolidin-1-yl)-3-[[2-ethynyl-6-[3-(trifluoromethyl)diazirin-3-yl]phenyl]methyl]triazolo[4,5-d]pyrimidine] | 9 nM | 147 nM
14 | C#Cc1cccc(C2(C(F)(F)F)N=N2)c1Cn1nnc2c(N3CC[C@H](O)C3)nc(C(C)(C)C)nc21 [Example 14, (3S)-1-[5-tert-Butyl-3-[[2-ethynyl-6-[3-(trifluoromethyl)diazirin-3-yl]phenyl]methyl]triazolo[4,5-d]pyrimidin-7-yl]pyrrolidin-3-ol] | 12 nM | > 10000 nM
15 | C#Cc1cccc(C2(C(F)(F)F)N=N2)c1Cn1nnc2c(N3CC[C@H](O)C3)nc(C(F)(F)c3ccccc3)nc21 [Example 15, (3S)-1-[5-[Difluoro(phenyl)methyl]-3-[[2-ethynyl-6-[3-(trifluoromethyl)diazirin-3-yl]phenyl]methyl]triazolo[4,5-d]pyrimidin-7-yl]pyrrolidin-3-ol] | 58 nM | > 10000 nM
